According to ChEMBL document CHEMBL2074185, “Differential effects of the breast cancer resistance protein on the cellular accumulation and cytotoxicity of 9-aminocamptothecin and 9-nitrocamptothecin” (Cancer Res, 2003):

Biological target: T1, Broad substrate specificity ATP-binding cassette transporter ABCG2 (Homo sapiens, UniProt Q9UNQ0)
T1 sequence (Q9UNQ0 whole entry): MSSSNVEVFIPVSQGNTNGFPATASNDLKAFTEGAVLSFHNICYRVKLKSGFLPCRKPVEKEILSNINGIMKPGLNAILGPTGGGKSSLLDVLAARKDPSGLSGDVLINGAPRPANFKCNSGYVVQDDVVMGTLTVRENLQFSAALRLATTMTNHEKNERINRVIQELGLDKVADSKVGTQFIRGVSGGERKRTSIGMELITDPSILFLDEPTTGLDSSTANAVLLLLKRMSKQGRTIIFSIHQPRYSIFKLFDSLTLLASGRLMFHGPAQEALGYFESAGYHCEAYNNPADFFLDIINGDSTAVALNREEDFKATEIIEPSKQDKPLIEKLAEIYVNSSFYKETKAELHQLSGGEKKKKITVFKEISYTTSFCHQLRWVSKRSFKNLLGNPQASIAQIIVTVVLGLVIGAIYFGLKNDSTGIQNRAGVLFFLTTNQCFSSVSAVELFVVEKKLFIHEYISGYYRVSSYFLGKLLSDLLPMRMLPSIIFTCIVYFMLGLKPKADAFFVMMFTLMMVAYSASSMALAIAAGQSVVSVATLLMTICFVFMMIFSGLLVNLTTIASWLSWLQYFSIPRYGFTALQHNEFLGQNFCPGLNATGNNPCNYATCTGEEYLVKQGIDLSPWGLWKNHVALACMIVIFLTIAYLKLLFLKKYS
Assay: TP_TRANSPORTER: uptake in BCRP-expressing HEK293 cells
Format: functional, cell-based

CC[C@@]1(O)C(=O)OCc2c1cc1n(c2=O)Cc2cc3c(N)cccc3nc2-1 [9-AMINOCAMPTOTHECIN]
Activity: substrate []
